“Also recorded” adds a separate entry of the source.
Assay: Compatibility study of homogeneous mixtures of the active ingredients (appearance and impurities after storage)
Format: physicochemical
Conditions: conclusion from the four-week mixture study
Description: Study was designed so as to evaluate the physico-chemical parameters of these three drugs.

Row | Structure (SMILES) | Compatibility with the other active ingredient
1 | Nc1ccn([C@@H]2CS[C@H](CO)O2)c(=O)n1 [Lamivudine, (2R-cis)-4-Amino-1-[2-(hydroxymethyl) 1,3-oxathiolan-5-yl]-2(1H)-pyrimidinone] | compatible with Nevirapine; also recorded: not with Stavudine
2 | Cc1cn([C@H]2C=C[C@@H](CO)O2)c(=O)[nH]c1=O [stavudine, (3′-deoxythymidin-2′-ene(3′-deoxy-2′,3′-didehydrothymidine)] | incompatible with nevirapine
